Patent US9822110B2, “Sulfonamide derivative and pharmaceutical use thereof” (EA Pharma Co., Ltd., priority 2013, dated 2017)

Target: T1, MAdCAM-1/α4β7 integrin (Homo sapiens, UniProt P13612+P26010)
T1 construct: a human B-cell line known to express α4β7 integrin; endogenous in cells; host or cells: RPMI-8866 (human B-cell line)
T1 sequence (P13612 34-1032): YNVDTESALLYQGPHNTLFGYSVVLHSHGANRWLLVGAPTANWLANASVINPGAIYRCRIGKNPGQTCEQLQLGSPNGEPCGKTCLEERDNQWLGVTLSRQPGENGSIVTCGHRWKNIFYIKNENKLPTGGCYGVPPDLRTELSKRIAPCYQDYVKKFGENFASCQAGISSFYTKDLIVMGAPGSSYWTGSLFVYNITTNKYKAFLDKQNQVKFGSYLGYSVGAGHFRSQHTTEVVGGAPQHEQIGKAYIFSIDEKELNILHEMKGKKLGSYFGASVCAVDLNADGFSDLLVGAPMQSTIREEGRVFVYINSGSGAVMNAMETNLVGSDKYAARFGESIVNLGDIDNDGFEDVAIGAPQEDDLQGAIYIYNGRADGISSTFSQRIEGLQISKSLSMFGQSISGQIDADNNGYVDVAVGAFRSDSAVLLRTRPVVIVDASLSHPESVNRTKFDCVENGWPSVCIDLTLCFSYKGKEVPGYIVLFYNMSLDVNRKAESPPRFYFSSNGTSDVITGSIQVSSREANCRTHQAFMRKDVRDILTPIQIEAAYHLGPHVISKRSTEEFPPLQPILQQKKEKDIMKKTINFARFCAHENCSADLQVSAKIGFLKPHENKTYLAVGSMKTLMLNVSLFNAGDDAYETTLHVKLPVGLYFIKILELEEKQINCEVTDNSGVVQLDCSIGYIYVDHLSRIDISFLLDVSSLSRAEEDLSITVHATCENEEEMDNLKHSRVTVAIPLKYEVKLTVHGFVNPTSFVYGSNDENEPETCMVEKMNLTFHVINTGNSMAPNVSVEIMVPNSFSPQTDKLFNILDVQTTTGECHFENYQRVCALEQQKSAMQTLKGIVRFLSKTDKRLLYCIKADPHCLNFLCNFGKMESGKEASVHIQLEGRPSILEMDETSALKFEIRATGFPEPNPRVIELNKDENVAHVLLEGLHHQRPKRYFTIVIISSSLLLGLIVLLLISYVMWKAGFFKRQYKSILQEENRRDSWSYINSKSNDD
T1 sequence (P26010 20-798): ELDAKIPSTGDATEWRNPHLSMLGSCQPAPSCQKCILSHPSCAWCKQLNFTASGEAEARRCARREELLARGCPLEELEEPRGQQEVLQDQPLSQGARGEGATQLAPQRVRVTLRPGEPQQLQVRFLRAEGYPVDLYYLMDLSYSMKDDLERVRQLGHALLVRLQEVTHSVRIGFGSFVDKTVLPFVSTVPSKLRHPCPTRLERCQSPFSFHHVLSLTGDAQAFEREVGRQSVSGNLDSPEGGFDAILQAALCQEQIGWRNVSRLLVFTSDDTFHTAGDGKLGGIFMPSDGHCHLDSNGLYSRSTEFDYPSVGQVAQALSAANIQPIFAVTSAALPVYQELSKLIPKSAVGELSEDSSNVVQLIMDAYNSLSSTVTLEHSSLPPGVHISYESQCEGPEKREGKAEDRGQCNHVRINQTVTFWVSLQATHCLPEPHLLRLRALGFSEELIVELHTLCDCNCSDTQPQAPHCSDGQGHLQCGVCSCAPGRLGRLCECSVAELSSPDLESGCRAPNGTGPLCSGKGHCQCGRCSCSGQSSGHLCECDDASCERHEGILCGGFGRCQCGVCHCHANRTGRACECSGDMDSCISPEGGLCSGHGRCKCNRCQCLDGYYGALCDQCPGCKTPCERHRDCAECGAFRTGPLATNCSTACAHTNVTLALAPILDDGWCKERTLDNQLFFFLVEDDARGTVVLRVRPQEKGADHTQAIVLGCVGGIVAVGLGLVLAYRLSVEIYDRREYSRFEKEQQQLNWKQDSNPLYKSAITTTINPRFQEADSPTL
Assay: Evaluation test (1) for MAdCAM-1/α4β7 integrin binding inhibitory activity in the presence of serum (RPMI-8866 cell binding to MAdCAM-1/Fc)
Assay type: cell-based
Details: RPMI-8866 cells, recombinant mouse MAdCAM-1/Fc, human serum at final concentration of 50%; read-out: α4β7 Serum Activity rank when α4β7 serum was added
Method: The selectivity was determined by dividing the IC50 value in the evaluation test for VCAM-1/α4β1 integrin binding inhibitory activity by the IC50 value in the evaluation test for MAdCAM-1/α4β7 integrin binding inhibitory activity. • (3) Evaluation Test (1) for MAdCAM-1/α4β7 Integrin Binding Inhibitory Activity in the Presence of Serum
The ability of test substances to inhibit the binding of RPMI-8866 cell line, a human B-cell line known to express α4β7 integrin, to MAdCAM-1 was examined.
A 96-well microtiter plate was coated overnight at 4° C. with a recombinant mouse MAdCAM-1/Fc (R&D systems) solution diluted with the buffer A (carbonate buffer, pH 9.6). After washing once with PBS, 150 μL/well of Block Ace (manufactured by Snow Brand Milk Products Co., Ltd.) was added, and it was incubated at room temperature for 2 hours. After removal, it was washed once with PBS.
100 μL of each of test substances and RPMI-8866 cells diluted with a binding buffer solution (DMEM containing 40 mM HEPES, 0.2% BSA, and 4 mM MnCl2) to various concentrations was added to the plate coated with MAdCAM-1/Fc, so that human serum was contained at a final concentration of 50%, and it was incubated at 30° C. for 15 minutes to 60 minutes. After the cells were bound to the wells, unbound cells were removed by washing with PBS. 50 μL/well of the buffer solution C (PBS containing 1.5% Triton X-100) was added to the plate to dissolve the bound RPMI-8866 cells. 30 μL of substrate buffer (Promega, CytoTox 96 Non-Radioactive Cytotoxicity Assay) was added to 30 μL of a cell lysate to allow a reaction for 30 minutes at room temperature in a dark place. 30 μL of stop solution (Promega, CytoTox 96 Non-Radioactive Cytotoxicity Assay) was added thereto to determine the absorbance at 490 nm using a plate reader. The absorbance was obtained herein by detecting the activity of lactate dehydrogenase (LDH) eluted in a supernatant of each well, that is, the absorbance is proportional to the number of RPMI-8866 cells remaining on the plate by being bound to MAdCAM-1. The test was duplicated, and the cell binding rate at various concentrations with the absorbance of the well containing no test substance being taken as 100% was determined, to calculate the concentration IC50 at which 50% of binding was inhibited.

| IC50 [nM] | Structure (SMILES) |
| --- | --- |
| > 200 | Cc1c(-c2ccc(C[C@H](NC(=O)c3cc(F)c(NS(=O)(=O)c4ccc(C5CCOCC5)cc4)cc3F)C(=O)O)cc2)c(=O)n(C)c(=O)n1C [Example 87, (2S)-2-[[2,5-Difluoro-4-[(4-tetrahydropyran-4-ylphenyl)sulfonylamino]benzoyl]amino]-3-[4-(1,3,4-trimethyl-2,6-dioxopyrimidin-5-yl)phenyl]propanoic acid] |
| 50 to 200 | Cc1c(-c2ccc(C[C@H](NC(=O)c3cc(F)c(NS(=O)(=O)c4ccc(-c5cnc(C(C)C)nc5)cc4)cc3F)C(=O)O)cc2)c(=O)n(C)c(=O)n1C [Example 88] |
| > 200 | Cc1c(-c2ccc(C[C@H](NC(=O)c3cc(F)c(NS(=O)(=O)c4ccc(-c5cnc(C6CCOCC6)nc5)cc4)cc3F)C(=O)O)nc2)c(=O)n(C)c(=O)n1C [Example 89, (2S)-2-[[2,5-Difluoro-4-[[4-(2-tetrahydropyran-4-ylpyrimidin-5-yl)phenyl]sulfonylamino]benzoyl]amino]-3-[5-(1,3,4-trimethyl-2,6-dioxopyrimidin-5-yl)-2-pyridyl]propanoic acid] |
